Key:
Assay in all cases: relative viability (nuclei count vs DMSO), 5 days (fraction); higher = more cells survive
CX-5461 + Phenformin = compound: Cc1cnc(CNC(=O)c2c(=O)c3ccc(N4CCCN(C)CC4)nc3n3c2sc2ccccc23)cn1 [CX-5461] + N=C(N)NC(=N)NCCc1ccccc1 [Phenformin] (partner 250 µM)
Outline: (§1)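 Nuclei were stained with Hoechst during a one-step fixation (final 0.05% Triton X-100, 1% formaldehyde, 1 ug/ml Hoechst) carried out 5 days after dosing, then counted on 4× images. The cells, lung cancer lines in 1536-well plates, had been dosed by pin tool the day after seeding with one drug alone or a fixed anchor-drug dose plus five library-drug doses (not always all listed) in √10 steps. Relative viability is the nuclei count in treated wells divided by that in vehicle wells, and each value is the median of duplicate plates.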

IMD-0354 + Phenformin = compound: O=C(Nc1cc(C(F)(F)F)cc(C(F)(F)F)c1)c1cc(Cl)ccc1O [IMD-0354] + N=C(N)NC(=N)NCCc1ccccc1 [Phenformin] (partner 250 µM)
Outline: as §1

CX-5461 + Luminespib = compound: Cc1cnc(CNC(=O)c2c(=O)c3ccc(N4CCCN(C)CC4)nc3n3c2sc2ccccc23)cn1 [CX-5461] + CCNC(=O)c1noc(-c2cc(C(C)C)c(O)cc2O)c1-c1ccc(CN2CCOCC2)cc1 [Luminespib] (partner 0.01 µM)
Outline: as §1

IMD-0354 + Luminespib = compound: O=C(Nc1cc(C(F)(F)F)cc(C(F)(F)F)c1)c1cc(Cl)ccc1O [IMD-0354] + CCNC(=O)c1noc(-c2cc(C(C)C)c(O)cc2O)c1-c1ccc(CN2CCOCC2)cc1 [Luminespib] (partner 0.01 µM)
Outline: as §1

With UMC-11 the relative viability (CX-5461 + Phenformin; first compound 0.01 µM) was 0.323, the relative viability (CX-5461 + Phenformin; first compound 0.03162 µM) was 0.298 and the relative viability (CX-5461 + Phenformin; first compound 0.1 µM) was 0.246. The relative viability (CX-5461 + Phenformin; first compound 0.3162 µM) was 0.293, the relative viability (CX-5461 + Phenformin; first compound 1 µM) was 0.217 and the relative viability (IMD-0354 + Phenformin; first compound 0.04 µM) was 0.321. The relative viability (IMD-0354 + Phenformin; first compound 0.1265 µM) was 0.229, the relative viability (IMD-0354 + Phenformin; first compound 0.4 µM) was 0.202 and the relative viability (IMD-0354 + Phenformin; first compound 1.265 µM) was 0.167. For the same cell line, the relative viability (IMD-0354 + Phenformin; first compound 4 µM) was 0.181, the relative viability (CX-5461 + Luminespib; first compound 0.01 µM) was 1.01 and the relative viability (CX-5461 + Luminespib; first compound 0.03162 µM) was 0.931. The relative viability (CX-5461 + Luminespib; first compound 0.1 µM) was 0.965, the relative viability (CX-5461 + Luminespib; first compound 0.3162 µM) was 0.951 and the relative viability (CX-5461 + Luminespib; first compound 1 µM) was 0.423. The relative viability (IMD-0354 + Luminespib; first compound 0.04 µM) was 1.1, the relative viability (IMD-0354 + Luminespib; first compound 0.1265 µM) was 0.888 and the relative viability (IMD-0354 + Luminespib; first compound 0.4 µM) was 0.434. It also gave a relative viability (IMD-0354 + Luminespib; first compound 1.265 µM) of 0.27 and a relative viability (IMD-0354 + Luminespib; first compound 4 µM) of 0.273.

Source: the supplement of paper PMC10307832
